This note sets out measurements from US20240335404A1, “SUBSTITUTED ESTERS CONTAINING POLYOLS AND SACCHARIDES FOR TREATING HEPATOTOXICITY AND FATTY LIVER DISEASES” (SINEW PHARMA INC., priority 2015, published 2024).

The test system of the test is fatty liver. Kind of test: High fat diet-induced fatty liver in B6 mice. The class given is in vivo. To be noted: HFD mice; for GSH / Gpx / Grd / SOD: liver; for ALT / AST / TC in liver / TG in liver: administration period of 4 weeks; for liver TG / liver TC: 4 or 8 weeks; for ALT and AST values: compounds administered separately; for liver tissue sections, H&E: treated for 4 weeks, FIG. 5. As to the method:
More than four mice were used in each group of the pre-test, while more than twelve mice were used in each group of the confirmatory test. […] The animal test was carried out according to the guideline for animal experiment of National Health Research Institutes. […] The weight of mice was recorded once a week. The tested animals were grouped randomly into Blank, High Fat Diet control (HFD), Positive Control (PS), and Test group. The animals of Blank were fed with normal feed. The animals of HFD were fed with high fat feed. […] The animals of Test group were fed with high fat feed, and additionally fed with test compounds by a tube. The animals of Blank were fed casually with normal feed for 12 weeks, while the animals of HFD, PS, and Test group were fed casually with high fat feed for 12 weeks. After 8 weeks of feeding, the animals of Blank and HFD were fed with deionized water by a tube once a day; the animals of PS were fed with silymarin by a tube once a day; and the animals of Test Group were fed with test compounds by a tube once a day for a duration of 4 or 8 weeks. Before testing and in the eighth, twelfth, and sixteenth week after testing, blood was collected from the cheek or the heart. At the end of testing, all mice were weighted and then sacrificed, and blood was collected from the cheek or the heart simultaneously. The blood specimens of mice rested at room temperature for one hour to clot, and then the serum was separated by centrifugation in a refrigeration centrifuge at 15,700×g at 4° C. for 5 minutes. Afterwards, biochemical indices of liver function, including aspartate transaminase (AST), alanine aminotransferase (ALT), triglyceride (TG), total cholesterol (TCHO/TC), low-density lipoprotein cholesterol (LDL-C), and high-density lipoprotein cholesterol (HDL-C), were detected by the automatic blood biochemistry analyzer. In addition, abdominal fat and liver specimens were taken from the abdomens of sacrificed mice and weighted to compare the weight of fat and liver and obtain the ratio of liver weight to body weight. […] The cut sections proceeded with H&E staining for histopathological observation. Moreover, the rest of the liver was frozen for preservation and detection of the contents of triglyceride and total cholesterol in the liver. Furthermore, the liver function of animals of each group were analyzed by Galactose Single Point Method, which was recognized and recommended for quantification of remaining liver function in clinical use by U.S. FDA and Ministry of Health and Welfare, Taiwan. […] One hour after the administration, about 0.5 ml of whole blood was taken by using a filter paper to evaluate liver function of mice. The higher the value of GSP was, the worse the remaining liver function would be. (FDA: “Guidance for Industry: Pharmacokinetics in Patients with Impaired. Hepatic Function-Study Design, Data Analysis and Impact on Dosing and. Labeling. 2003. At the end of the test, all mice were sacrificed. […] Afterwards, xylene was replaced with hot paraffin solution. At last, the tissue was embedded with paraffin solution. The finished paraffin specimen was cut into […] paraffin sections by the microtome. The sections were pasted on clean slides, dried at 37° C., and then stained by H&E staining. In order to observe the changes of lesion, fat accumulation, necrosis, or fibrosis in liver cells when there was an ongoing liver damage, liver tissues were H&E stained to evaluate the degree of liver fat accumulation. All the histopathological sections were cut from the same position on the largest right lobe of liver for eliminating bias in subjective observation, and then subject to pathological staining. As for the assessment of semi-quantitative analysis in pathology, it had to be confirmed by a physician or a veterinary pathologist who conducted a double-blind analysis to score (NAS score) and compare all the sections without knowing the test design. […]

[1] abbreviates: 2.5 mg/kg, test period of 4 weeks.
The mark [2] stands for this setting: 1.5 mg/kg, test period of 4 weeks.

The structures appear in SMILES notation.

Take `O=C(CCc1ccc(O)cc1)c1c(O)cc(O)cc1O[C@@H]1O[C@H](CO)[C@@H](O)[C@H](O)[C@H]1O` [Phloridzin]: under setting [1], the GSH was 1387.7 ± 168.2 U/L, the Gpx worked out at 3234.0 ± 505.1 U/L, the Grd was 82.2 ± 33.6 U/L and the SOD is reported as 411.5 ± 87.5 U/L. For the setting “2.5 mg/kg”, the Abdominal fat weight is given as 2.3 ± 0.6 g, the “Increase of body weight” value amounted to 13.7 ± 10.7 g, the Liver weight is 1.3 ± 0.1 g and the ALT is given as 35.7 ± 9.1 U/L. Where the note is “2.5 mg/kg”, this compound had an AST of 161.9 ± 96.2 U/L, a TC in liver of 2.9 ± 0.5 mg/g liver and a TG in liver of 48.9 ± 14.1 mg/g liver.

Regarding `O=c1c(-c2ccc(O)cc2)coc2c([C@@H]3O[C@H](CO)[C@@H](O)[C@H](O)[C@H]3O)c(O)ccc12` [Puerarin], the “liver TG” value was “reduce TG in liver significantly”; the “ALT and AST values” is “reduce ALT and AST values significantly”. Under setting [1], the GSH turned out to be 1498.1 ± 150.0 U/L, the Gpx is reported as 3581.7 ± 1056.7 U/L, the Grd stood at 99.0 ± 17.2 U/L and the SOD was determined as 434.5 ± 59.8 U/L. For the same compound, for the setting “2.5 mg/kg”, the Abdominal fat weight is listed as 2.8 ± 0.3 g, the “Increase of body weight” value is recorded as 21.7 ± 3.1 g, the Liver weight is recorded as 1.4 ± 0.2 g and the ALT is listed as 34.4 ± 14.7 U/L. For the setting “2.5 mg/kg”, this compound had an AST of 66.9 ± 8.5 U/L, a TC in liver of 6.7 ± 2.7 mg/g liver and a TG in liver of 89.4 ± 49.1 mg/g liver. Also, the “liver antioxidant activity” value (4 weeks) is reported as “improve antioxidant activity significantly”.

Turning to `COc1ccc([C@@H]2CC(=O)c3c(O)cc(O)cc3O2)cc1O` [Hesperitin], the “liver TC” value is “reduce TC in liver significantly”; the “liver TG” value was “reduce TG in liver significantly”; the “ALT and AST values” is “reduce ALT and AST values significantly”. Under setting [1], this compound returned a GSH of 1742.6 ± 241.5 U/L, a Gpx of 3133.3 ± 376.9 U/L, a Grd of 102.5 ± 28.3 U/L and an SOD of 408.3 ± 66.7 U/L. Also, under “2.5 mg/kg”, the Abdominal fat weight stood at 3.0 ± 0.5 g, the “Increase of body weight” value was 14.5 ± 8.3 g, the Liver weight is given as 1.5 ± 0.1 g and the ALT came out at 36.8 ± 22.1 U/L. Where the note is “2.5 mg/kg”, this compound returned an AST of 72.4 ± 11.2 U/L, a TC in liver of 3.7 ± 0.7 mg/g liver and a TG in liver of 67.8 ± 16.6 mg/g liver. Also, the “liver antioxidant activity” value (4 weeks) is listed as “improve antioxidant activity significantly”.

Consider `O=C1C[C@@H](c2ccc(O)c(O)c2)Oc2cc(O)cc(O)c21` [Eriodictyol], for which the “liver TC” value is “reduce TC in liver significantly”; the “liver TG” value was “reduce TG in liver significantly”; the “ALT and AST values” was “reduce ALT and AST values significantly”; the “liver tissue sections, H&E” value was “large vesicular fat droplets within liver cells in liver tissue section were significantly reduced”. Moreover, under setting [1], the GSH worked out at 1302.0 ± 241.1 U/L, the Gpx was 3083.3 ± 378.9 U/L, the Grd came out at 86.9 ± 15.7 U/L and the SOD worked out at 385.9 ± 34.0 U/L. In addition, under setting [1], the NAS was 1.5 ± 0.8 mg/g liver. Moreover, where the note is “2.5 mg/kg”, the Abdominal fat weight is recorded as 2.7 ± 0.6 g, the “Increase of body weight” value was 8.3 ± 6.7 g, the Liver weight came to 1.3 ± 0.1 g and the ALT is 33.7 ± 18.5 U/L. Under “2.5 mg/kg”, this compound had an AST of 100.9 ± 42.0 U/L, a TC in liver of 3.8 ± 1.1 mg/g liver and a TG in liver of 43.1 ± 13.1 mg/g liver. For the same compound, where the note is “5.0 mg/kg”, the ALT is given as 41.4 ± 6.3 U/L, the AST amounted to 161.4 ± 42.3 U/L, the TC in liver was 3.0 ± 0.9 mg/g liver and the TG in liver was 54.2 ± 15.0 mg/g liver. Besides, where the note is “4-week treatment, p<0.005”, the “reduction in liver TG content” value is recorded as “about 67%”. Besides, under “4 weeks”, the “liver antioxidant activity” value is “improve antioxidant activity significantly” and the “liver damage, NAS” value is on record as “reduce liver damage significantly”.

Take `O=C1NS(=O)(=O)c2ccccc21` [Saccharin]: the “liver TC” value is on record as “reduce TC in liver significantly”; the “ALT and AST values” was “reduce ALT and AST values significantly”. Moreover, where the note is “1.5 mg/kg”, the Abdominal fat weight came out at 2.3 ± 0.5 g, the “Increase of body weight” value worked out at 27.7 ± 12.7 g, the Liver weight was found to be 1.5 ± 0.1 g and the ALT amounted to 50.7 ± 29.7 U/L. For the same compound, under “1.5 mg/kg”, the AST is given as 170.4 ± 28.6 U/L, the TC in liver came out at 2.8 ± 1.5 mg/g liver and the TG in liver is listed as 84.0 ± 41.4 mg/g liver. The “reduction in liver TC content” value (4-week treatment, p<0.005) was “about 56%”.

On to `CC1CCC(C(C)C)C(O)C1` (centres unmarked) [Menthol], for which the “weight of abdominal fat” value was “reduce the weight of abdominal fat in animals significantly”; the “liver TC” value is given as “reduce TC in liver significantly”; the “liver TG” value is given as “reduce TG in liver significantly”; the “ALT and AST values” is “reduce ALT and AST values significantly”. Also, the “liver tissue sections, H&E” value was “large vesicular fat droplets within liver cells in liver tissue section were significantly reduced”. In addition, under setting [2], the GSH was found to be 1432.7 ± 104.0 U/L, the Gpx is on record as 2921.7 ± 640.2 U/L, the Grd is listed as 95.2 ± 16.2 U/L and the SOD is 427.9 ± 41.9 U/L. Besides, where the note is “1.5 mg/kg”, the Abdominal fat weight was found to be 2.3 ± 0.6 g, the “Increase of body weight” value was determined as 19.6 ± 5.0 g, the Liver weight is 1.6 ± 0.2 g and the ALT is reported as 41.5 ± 13.7 U/L. Also, where the note is “1.5 mg/kg”, the AST is 129.9 ± 37.1 U/L, the TC in liver amounted to 4.4 ± 3.5 mg/g liver and the TG in liver worked out at 87.3 ± 72.3 mg/g liver.
